US8552035B2, “Phenanthrenone compounds, compositions and methods” (Pfizer Inc., priority 2008, dated 2013)

Tests used:
Assay type in all cases: in vivo
[1] = test system: Mouse collagen-induced arthritis; assay: Therapeutic mouse collagen-induced arthritis (mCIA); details: for ED50: 816 h, dosing day 34 to 49, read-out: Therapeutic mCIA (ED50 dose); for Therapeutic mCIA (ED80 dose): dosing day 34 to 49
Description: Mouse Collagen-induced arthritis is a commonly used chronic, preclinical model of rheumatoid arthritis in which joint swelling and bone destruction occur following immunization with type II collagen. Reduction of disease incidence and severity has been shown previously to be predictive of disease-modification and signs and symptoms mitigation, respectively, in a clinical setting.
In the therapeutic mCIA model, induction of disease incidence and severity was synchronized via LPS stimulation. Male DBA/J mice were immunized with 100 ug of bovine type II collagen (bCII) on day 0. All mice received an intraperitoneal injection of 20 μg of LPS on day 28 and disease was allowed to develop through day 34. At day 34, all mice had disease (incidence=100%) with an average severity score of seven. Dosing of compounds was initiated in the therapeutic mode on day 34 and continued through day 49. Different treatments were compared by measuring the decrease in incidence (i.e., resolution of disease) and the decrease in severity of paw swelling over time.
(§1) ED50 and ED80 values are obtained for the various parameters using four-parameter logistic fits of data. For each experiment/dose group, outliers are detected by calculating the number of standard deviations each mouse's value was from the mean of their group and then dividing by the standard deviation of the group. The means and standard deviations used in this calculation omitted the value being examined so that, if it were an outlier, it would have no influence. If the value being examined is more than 2.5 standard deviations from the mean, it was not used in the rest of the calculations.
(§2) Percent inhibition values are then calculated for each animal using the means of the vehicle and 10 mpk prednisone control groups. The individual mouse percent inhibition values are then fit to a four-parameter logistic model using the area under curve mean for each group. Since all four parameters are estimated and the lower plateau is not fixed at 0% and the upper plateau was not fixed at 100%, the ED50 and ED80 values are calculated by using an inverse calibration formula for a response equal to 50% or 80%. The designation “nd” means not determined.

LPS-induced TNFα = assay: 28-day mouse side-effect model, LPS-induced serum TNFα suppression; details: oral gavage 28 days, LPS challenge; for ED50: 672 h, read-out: TNFα Suppression (ED50 dose)
Method: (§3) 10-12 week old female Swiss Webster mice (Taconic, Germantown, N.Y., U.S.A.) weighing 27-29 grams are used in accordance with the guidelines of the Institutional Animal Care and Use Committee and in accordance with NIH guidelines on laboratory animal welfare. Mice are acclimated to the Pfizer animal facility for 3-7 days prior to being placed on study. Prednisolone and DAGR compounds are administered by oral gavage for a total of 28 days. Each treatment group generally contains 8-10 mice. To establish a dosing regimen for the studies, a pilot pharmacodynamic time course experiment is conducted to quantify TNFa repression after a single ED80 dose (determined from the acute LPS endotoxemia mouse model). […] DAGR compounds vary in their required frequency of doses.
(§4) Body weights are measured on the first and last day of each experiment. Blood samples are obtained after ˜3 weeks of dosing for steady-state pharmacokinetic analysis. To assess compound effects on LPS-induced TNF-a, all mice receive an intraperitoneal injection of LPS (Salmonella Typhosa, Sigma, St. Louis, L-7895) 2.5 hr after the last dose on day 28. Mice are sacrificed 90 min. after LPS administration. Serum samples are assayed for osteocalcin and TNFa using the Linco multiplex assay (St. Charles, Mo.) and Luminex 100 (Austin, Tex.). Samples are diluted 1:20 and the assay is run according to manufacturer's instructions. An osteocalcin standard is purchased separately from Biomedical Technologies Incorporated (Stoughton, Mass.). Serum insulin is measured to assess compound effects on insulin resistance. Insulin was measured using the UltraSensitive Mouse EIA kit from Alpco Diagnostics (Salem, N.H.) following the manufacturer's protocol.
as §1, §2

osteocalcin = assay: 28-day mouse side-effect model, serum osteocalcin suppression; details: oral gavage 28 days; for ED50 at 28 days: female, Swiss Webster, read-out: Osteocalcin Suppression (ED50 dose)
Method: as §3, §4, §1, §2

bone formation rate = assay: 28-day mouse side-effect model, cortical bone histomorphometry (bone formation rate); details: oral gavage 28 days, tibia cortical bone formation rate; for ED50 at 28 days: female, Swiss Webster, read-out: BFR (ED50 dose)
Method: as §3
During the in-life portion of each study, mice received two IP injections of the fluorochrome calcein (C-0875; Sigma-Aldrich; 20 mg/kg; 200 μL/mouse), dissolved in 2% sodium bicarbonate, on days 1 and 26 for bone histomorphometry measurements. Fluorochrome labels incorporate into the bone mineral and allow measurement of bone formation rate. During the tissue harvest, the left tibia is excised and cleaned for cortical histomorphometry measurements. After all skin and muscle are removed, tibiae are placed in 70% ethanol (4° C.) in the dark for a minimum of 24 hours.
Ground transverse sections are used for histomorphometric analysis of cortical bone^1. Bones are sectioned using a low speed saw (Isomet, Buehler, Lake Bluff, Ill.) equipped with a diamond wafer blade. The end of each tibia is removed proximal to tibia-fibula synostosis and a […] cross-section is cut. Using a roughened glass plate and a cork, sections are ground to […] until transparent and all labels distinguishable under a fluorescent microscope. Sections are dehydrated using the following solutions for a minimum of 2 minutes each: 1) 70% ethanol, 2) 95% ethanol, 3) 100% ethanol, 4) 50/50 ethanol/xylene, and 5) xylene (twice) (Sigma, St. Louis, 534056). Sections are mounted using Eukitt Quick Mounting Medium (Sigma, St. Louis, 03989) and cover-slipped. Using the Osteomeasure Bone Analysis Program (Decatur, Ga.), bone formation rate is calculated by tracing the 1st and 2nd fluorescent labels in addition to tracing the inner and outer perimeter of the bone. Bone formation rate is calculated by the following equation: (Interlabel Width/Label Interval)*(Labeled Perimeter/Bone Perimeter). At least 5 samples are measured from each treatment group in each study.
as §1, §2

serum insulin = assay: 28-day mouse side-effect model, serum insulin; details: oral gavage 28 days; for ED50 at 28 days: female, Swiss Webster, read-out: Insulin (ED50 dose)
Method: as §3, §4, §1, §2

| Structure (SMILES) | ED50 [1] | Therapeutic mCIA (ED80 dose) [1] | ED50 (LPS-induced TNFα) | TNFα Suppression (ED80 dose) (LPS-induced TNFα) | ED50 at 28 days (osteocalcin) | Osteocalcin Suppression (ED80 dose) (osteocalcin) | ED50 at 28 days (bone formation rate) | BFR (ED80 dose) (bone formation rate) | ED50 at 28 days (serum insulin) | Insulin (ED80 dose) (serum insulin) |
| --- | --- | --- | --- | --- | --- | --- | --- | --- | --- | --- |
| Cc1ncccc1NC(=O)c1ccc2c(c1)CC[C@@H]1C[C@@](O)(C(F)(F)F)[C@](C)(O)C[C@@]21Cc1ccccc1 [Comparator E, (4bR,6R,7S,8aR)-4b-benzyl-6,7-dihydroxy-6-methyl-N-(2-methylpyridin-3-yl)-7-(trifluoromethyl)-4b,5,6,7,8,8a,9,10-octahydrophenanthrene-2-carboxamide] | 0.13 mg/kg | 1.15 | > 1 mg/kg | >1 | 0.78 mg/kg | >1 | 0.28 mg/kg | 0.33 | > 1 mg/kg | >1 |
| C[C@@]1(O)C[C@@]2(Cc3ccccc3)c3ccc(C(=O)NCc4cccnc4)cc3CC[C@@H]2C[C@@]1(O)c1ccccc1 [Comparator D, (4bR,6R,7R,8aR)-4b-benzyl-6,7-dihydroxy-6-methyl-7-phenyl-N-(pyridin-3-ylmethyl)-4b,5,6,7,8,8a,9,10-octahydrophenanthrene-2-carboxamide] | – | – | 11.4 mg/kg | 14.48 | > 60 mg/kg | >60 | 35.9 mg/kg | >60 | > 60 mg/kg | >60 |
| Cc1ncccc1NC(=O)c1ccc2c(c1)CC[C@@H]1C[C@@](O)(c3ccccn3)[C@](C)(O)C[C@@]21Cc1ccccc1 [Comparator C, (4bR,6R,7R,8aR)-4b-benzyl-6,7-dihydroxy-6-methyl-N-(2-methylpyridin-3-yl)-7-(pyridin-2-yl)-4b,5,6,7,8,8a,9,10-octahydrophenanthrene-2-carboxamide] | 0.8 mg/kg | 2.9 | 3.08 mg/kg | 9.87 | 3.68 mg/kg | >20 | 3.72 mg/kg | 7.88 | > 20 mg/kg | >20 |
